# Assay results published in paper PMC2724550, “Citrus auraptene suppresses cyclin D1 and significantly delays N-methyl nitrosourea induced mammary carcinogenesis in female Sprague-Dawley rats” (BMC Cancer, 2009).
# Marks after values point to notes of the source that are not given here.
# Key:
# [1] = parameters: method as in PMID 18444171; conditions: male Sprague-Dawley rats, cited from earlier work
# [2] = tested on: N-methyl nitrosourea (MNU) induced mammary carcinogenesis; assay: MNU-induced rat mammary carcinogenesis study, dietary auraptene; assay type: in vivo, female Sprague-Dawley rats; conditions: for Incidence (percentage of rats with tumor) / Multiplicity (average number of tumors per rat): means ± SE; for tumor burden: average tumor weight per rat / tumor burden: total tumor weights per rat: at necropsy
# Procedure: A total of 128 female Sprague-Dawley rats (28 days of age), purchased from Harlan Teklad (Madison, WI), were used for this experiment. They were housed two per cage, in a temperature and humidity controlled AAALAC facility under 12 h light/dark cycle. All procedures were approved by LSUHSC Institutional Animal Care and Use Committee in accordance with NIH guidelines. They were fed test diets as described below and allowed access to food and water ad libitum.
# Rats (28 days of age) were divided up randomly into groups of 24–26 each and were handled daily to get them accustomed to human touch. At 42 days of age the rats were shifted to the test diet. Control group and MNU only group were fed with Teklad (powdered diet) only. MNU/Auraptene 200 ppm group and MNU/Auraptene 500 ppm group received 200 ppm and 500 ppm of auraptene respectively, mixed in the diet for the duration of the study. The doses were selected from the pilot study conducted with a small number of animals. In addition to the 200 ppm dose of auraptene, which indicated the chemopreventive effect of auraptene, a higher dose of auraptene at 500 ppm was added to this study to see any increased chemopreventive effects. Auraptene has been administered in diet at 100 ppm and 500 ppm in other models of cancer. The diet was prepared once a week and stored in cold room. The food was replaced on Monday, Wednesday and Friday or as needed. […] At 50 days of age all the groups except the control group received intraperitoneal MNU injection (50 mg/kg bw in sterile acidified saline). The control group received vehicle only. The rats were palpated for tumors twice a week starting at 2 weeks after MNU administration. Any tumors felt during palpation were recorded by location. The rats were weighed once a week. A diet consumption analysis was done once to see if rats were consuming enough feed across all the groups and there was no significant difference in food consumption between the groups (data not shown). Any rats found to be moribund during the study were sacrificed within 24 h and necropsied. At 18 weeks after MNU administration, rats were euthanized by carbon dioxide asphyxiation and necropsied. The tumor location and weight of the tumor were marked in the necropsy sheet. Mammary fat pads and the tumors were collected in formalin, OCT compound and liquid nitrogen.
# The rat body weight data was compared between groups by One-Way ANOVA followed by Tukey test. Groups were compared for the total number of tumors per rat by the nonparametric Kruskal-Wallis test. Time to tumor was estimated and compared among groups using survival curve analysis by the Log-rank test. The Cochran-Armitage test was used to test for trends in binomial response to different dose levels. Analysis was performed using StatXact (Cytel Software Corporation, Cambridge MA) and SPSS (SPSS Inc., Chicago IL). The cell proliferation assays and western blot data were analyzed by One-Way ANOVA followed by Tukey test.
# MCF-7 cells = assay: MCF-7 cell proliferation assay with IGF-1 (MTS); assay type: cell-based, human; conditions: IGF-1 10 ng/mL, 24 hrs
# Procedure: The human breast carcinoma cell line MCF-7 was obtained from ATCC (Manassas, VA) and grown in a sterile humidified environment at 37°C and 5% CO2: 95% air with complete DMEM media. The MCF-7 cells were plated in a 96 well plate at 30,000 cells/well at a confluency of 40%. The cells were serum starved for 24 h. At 22 h of serum starvation, the cells were treated with auraptene at 1 – 50 μM auraptene in DMSO (0.1%, v/v). The control cells received vehicle only (DMSO, 0.1% v/v). At 24 h of serum starvation, the cells were treated with IGF-1(10 ng/mL). After 24 hrs of IGF-1 treatment, the cells were treated with MTS [3-(4,5-dimethylthiazol-2-yl)-5-(3-carboxy methoxy phenyl)-2-(4-sulfophenyl)-2H-tetrazolium], for 2 h and the absorbance was measured at 490 nm.
# Figure 2 Effects of auraptene on human breast carcinoma cells. (A) Effects of auraptene on MDA-MB-231 cell proliferation. Cells were serum starved for 5 h and then treated with 1–50 μM auraptene in 0.01% DMSO. Cell proliferation was assessed using the MTT reagent. Figures represent % vehicle control (means ± S.E.) # Replicates = 2 plates at 6 wells each for the treatment groups and 12 wells for the control group (* statistically different from control group, p < 0.05, One-way ANOVA, Tukey test). (B) Effects of auraptene on MCF-7 cell proliferation. Cells were serum starved for 24 h. […] Cell proliferation was assessed using the MTS reagent. […]
# c-Myc = tested on: c-Myc; parameters: method as in PMID 16979634; conditions: 25 μM auraptene, HT-29 human colorectal cancer cells; cited from earlier work
# [3] = Stability of auraptene in diet by HPLC; assay type: physicochemical; conditions: animal room conditions, HPLC analysis, data not shown
# [4] = 500 μmol/kg bw p.o. gavage, 1–4 h
# [5] = 200 ppm in diet, 112 days (16 weeks) after MNU
# [6] = 200 ppm in diet, 126 days (18 weeks) after MNU
# [7] = 200 ppm in diet, 126 days (18 weeks) after MNU, listed as Aur.
# [8] = 500 ppm in diet, 16 weeks, vs MNU only group
# [9] = 500 ppm in diet, 112 days (16 weeks) after MNU
# [10] = 500 ppm in diet, 126 days (18 weeks) after MNU
# [11] = 500 ppm in diet, 126 days (18 weeks) after MNU, listed as Aur.
structure (smiles),measurement,setting,value
CC(C)=CCC/C(C)=C/COc1ccc2ccc(=O)oc2c1 [auraptene],concentration in large intestine,[1]; [4],≤ 20 nmol/g
same,concentration in small intestine,[1]; [4],≤ 100 nmol/g
same,concentration in stomach,[1]; [4],~ 2000 nmol/g
same,hepatic concentration,[1]; within 1–4 h of oral administration,~ 25 μm
same,Median time to tumor,[2]; 200 ppm in diet,91 days
same,first palpable tumor after MNU injection,[2]; 200 ppm in diet,38 days
same,Incidence (percentage of rats with tumor),[2]; [5],76.9 ± 8.4%
same,Multiplicity (average number of tumors per rat),[2]; [5],1.69 ± 0.27
same,Incidence (percentage of rats with tumor),[2]; [6],81%
same,Multiplicity (average number of tumors per rat),[2]; [6],2.08
same,Incidence (percentage of rats with tumor),[2]; [7],80.7 ± 7.8%
same,Multiplicity (average number of tumors per rat),[2]; [7],2.08 ± 0.33
same,tumor burden: average tumor weight per rat,[2]; 200 ppm in diet,2.94 ± 0.79 grams
same,tumor burden: total tumor weights per rat,[2]; 200 ppm in diet,6.52 ± 1.49 grams
same,delay of median time to tumor,"[2]; 200 ppm in diet, compared to MNU group",11 days
same,Median time to tumor,[2]; 500 ppm in diet,119 days
same,first palpable tumor after MNU injection,[2]; 500 ppm in diet,49 days
same,inhibition of tumor multiplicity,[2]; [8],37%
same,suppression of tumor incidence,[2]; [8],46%
same,Incidence (percentage of rats with tumor),[2]; [9],45.8 ± 10.4^b %
same,Multiplicity (average number of tumors per rat),[2]; [9],1.21 ± 0.35^c
same,Incidence (percentage of rats with tumor),[2]; [10],67%
same,Multiplicity (average number of tumors per rat),[2]; [10],2.0
same,Incidence (percentage of rats with tumor),[2]; [11],66.7 ± 9.8%
same,Multiplicity (average number of tumors per rat),[2]; [11],2.00 ± 0.43
same,tumor burden: average tumor weight per rat,[2]; 500 ppm in diet,1.79 ± 0.54 grams
same,tumor burden: total tumor weights per rat,[2]; 500 ppm in diet,6.50 ± 2.10 grams
same,delay of median time to tumor,"[2]; 500 ppm in diet, compared to MNU only group",39 days
same,total number of tumors in group,"[2]; 500 ppm in diet, end of study, MNU only group had 65",48 tumors
same,Median time to tumor,"[2]; 500 ppm in diet, listed as Aur.",119^d days
same,suppression of MCF-7 cell proliferation,MCF-7 cells; 20 μM auraptene,26%
same,suppression of MCF-7 cell proliferation,MCF-7 cells; 50 μM auraptene,49%
same,expression of c-Myc,c-Myc,suppressed the expression of c-Myc
same,stability in diet,[3],not degraded
